Data reported in ChEMBL document CHEMBL6120988, “Mitochondria-targeting artesunate-rhein conjugates: Linker-modulated cell-permeability, heme-affinity and anticancer activity” (Eur J Med Chem, 2025).
Calls of active or inactive are those of the source. No cut-off for these calls is given here.

Legend:
[1] = system: 4T1; experiment: Cytotoxicty against mouse 4T1 cells assessed as cell viability by MTT assay; type: functional, cell-based
[2] = system: 4T1; experiment: Induction of ROS production in mouse 4T1 cells assessed as increase in intracellular ROS level by […] staining based flow cytometry (reference value: 7.8%); type: functional
[3] = system: MCF7; experiment: Cytotoxicity against human MCF7 cells assessed as cell viability by MTT assay; type: functional, cell-based
[4] = Drug localization in mitochondria of mouse 4T1 cells assessed as fluorescence intensity measured using pearson co-efficient incubated for 10 hrs by mito-tracker red fluorescent dye based confocal laser scanning microscopic analysis; type: ADME; conditions: 4t1, 10 h
[5] = system: 4T1; experiment: Cytotoxicty against mouse 4T1 cells assessed as cell death by measuring red staining by calcein/PI staining based live/dead staining analysis; type: functional
[6] = system: Mitochondrial membrane; experiment: Induction of mitochondrial membrane potential loss in mouse 4T1 cells assessed as increase in green fluorescence by JC-1 staining based flow cytometric analysis (reference value: 7.4 %); type: cell membranes
[7] = system: A549; experiment: Cytotoxicity against human A549 cells assessed as cell viability by MTT assay; type: functional, cell-based
[8] = system: U-87 MG; experiment: Cytotoxicity against human U87 cells assessed as cell viability by MTT assay; type: functional, cell-based, U-87MG ATCC
[9] = system: 4T1; experiment: Induction of apoptosis in mouse 4T1 cells assessed as late apoptotic cells by Annexin V-FITC and PI staining based flow cytometry analysis (reference value: 0.13 %); type: functional
[10] = system: HeLa; experiment: Cytotoxicity against human Hela cells assessed as cell viability by MTT assay; type: functional, cell-based
[11] = system: 4T1; experiment: Induction of apoptosis in mouse 4T1 cells assessed as viable cells by Annexin V-FITC and PI staining based flow cytometry analysis (reference value: 96.2 %); type: functional
[12] = system: 4T1; experiment: Induction of apoptosis in mouse 4T1 cells assessed as early apoptotic cells by Annexin V-FITC and PI staining based flow cytometry analysis(reference value: 3.60 %); type: functional
[13] = system: 4T1; experiment: Induction of apoptosis in mouse 4T1 cells assessed as necrotic cells by Annexin V-FITC and PI staining based flow cytometry analysis (reference value: 0.085 %); type: functional
[14] = system: 4T1; experiment: Induction of immunogenic cell death in mouse 4T1 cells assessed as increase in CRT expression by flow cytometry analysis (reference value: 2.55%); type: functional
[15] = system: 4T1; experiment: Induction of immunogenic cell death in mouse 4T1 cells assessed as increase in CRT exposure on cell surface by measuring increase in red fluorescence by CLSM analysis (reference value: 2.55%); type: functional

Row | Structure (SMILES) | IC50 [1] [nM] | Activity [2] [%] | IC50 [3] [nM] | Flu intensity [4] | Activity [5] | Activity [6] [%] | IC50 [7] [µM] | IC50 [8] [nM] | Activity [9] [%] | IC50 [10] [µM] | Activity [11] [%] | Activity [12] [%] | Activity [13] [%] | Activity [14] [%] | Activity [15] [%]
1 | CC(=O)O[C@H]1C(=O)[C@@]2(C)[C@H]([C@H](OC(=O)c3ccccc3)[C@]3(O)C[C@H](OC(=O)[C@H](O)[C@@H](NC(=O)c4ccccc4)c4ccccc4)C(C)=C1C3(C)C)[C@]1(OC(C)=O)CO[C@@H]1C[C@@H]2O [PACLITAXEL] | 3150 | – | – | – | – | – | – | – | – | – | – | – | – | – | –
2 | C[C@H]1[C@H](OC(=O)CCC(=O)OCCCCCCOC(=O)c2cc(O)c3c(c2)C(=O)c2cccc(O)c2C3=O)O[C@@H]2O[C@@]3(C)CC[C@H]4[C@H](C)CC[C@@H]1[C@@]24OO3 | 1800 | 32.7 | 2190 | 0.95 | Active | 38.1 | 3.29 | 2690 | 17.7 | 3.11 | 65.8 | 14.2 | 2.37 | – | –
3 | C[C@H]1[C@H](OC(=O)CCC(=O)OCCOC(=O)c2cc(O)c3c(c2)C(=O)c2cccc(O)c2C3=O)O[C@@H]2O[C@@]3(C)CC[C@H]4[C@H](C)CC[C@@H]1[C@@]24OO3 | 1400 | 39.6 | 2230 | 0.91 | Active | 39.2 | 3.01 | 2440 | 26.7 | 2.77 | 52.6 | 13.9 | 6.81 | – | –
4 | C[C@H]1[C@H](OC(=O)CCC(=O)O)O[C@@H]2O[C@@]3(C)CC[C@H]4[C@H](C)CC[C@@H]1[C@@]24OO3 [ARTESUNATE] | 12000 | 14.3 | 12700 | – | – | 14.8 | 14.7 | 13500 | 2.24 | 15.4 | 90.6 | 6.46 | 0.71 | 9.59 | 9.59
5 | C[C@H]1[C@H](OC(=O)CCC(=O)OCCCCCOC(=O)c2cc(O)c3c(c2)C(=O)c2cccc(O)c2C3=O)O[C@@H]2O[C@@]3(C)CC[C@H]4[C@H](C)CC[C@@H]1[C@@]24OO3 | 1680 | 30 | 2270 | 0.94 | Active | 36.5 | 3.19 | 2910 | 15.2 | 2.88 | 69.5 | 13 | 2.34 | – | –
6 | C[C@H]1[C@H](OC(=O)CCC(=O)OCCCOC(=O)c2cc(O)c3c(c2)C(=O)c2cccc(O)c2C3=O)O[C@@H]2O[C@@]3(C)CC[C@H]4[C@H](C)CC[C@@H]1[C@@]24OO3 | 1410 | 31 | 2430 | 0.96 | Active | 37.3 | 2.93 | 2560 | 21.6 | 2.9 | 60.1 | 14.9 | 3.35 | – | –
7 | O=C(O)c1cc(O)c2c(c1)C(=O)c1cccc(O)c1C2=O [RHEIN] | 51500 | 11.8 | 56500 | 0.93 | – | 11.4 | 53.4 | 47800 | 0.86 | 50.8 | 94 | 4.28 | 0.83 | 3.82 | 3.82
